The subject of experiment [1] is Mycosphaerella arachidis (Cercospora arachidicola). Kind of experiment: Mycosphaerella arachidis (Cercospora arachidicola) / liquid culture (early leaf spot). The note with it: PDB potato dextrose broth, 24° C., 4-5 days after application, compared to untreated checks, read-out: disease control (inhibition of growth, photometric). It is filed as cell-based. The method, then:
Mycosphaerella arachidis (Cercospora arachidicola)/Liquid Culture (Early Leaf Spot) Conidia of the fungus from cryogenic storage are directly mixed into nutrient broth (PDB potato dextrose broth). After placing a (DMSO) solution of test compound into a microtiter plate (96-well format), the nutrient broth containing the fungal spores is added. The test plates are incubated at 24° C. and the inhibition of growth is determined photometrically 4-5 days after application.

The test system of experiment [2] is Botryotinia fuckeliana (Botrytis cinerea). Description: Botryotinia fuckeliana (Botrytis cinerea) / liquid culture (gray mould). It is filed as cell-based. The note with it: Vogels broth, 24° C., 3-4 days after application, compared to untreated checks, read-out: disease control (inhibition of growth, photometric). The method, then: Botryotinia fuckeliana (Botrytis cinerea)/Liquid Culture (Gray Mould) Conidia of the fungus from cryogenic storage are directly mixed into nutrient broth (Vogels broth). After placing a (DMSO) solution of test compound into a microtiter plate (96-well format), the nutrient broth containing the fungal spores is added. The test plates are incubated at 24° C. and the inhibition of growth is determined photometrically 3-4 days after application.

The subject of experiment [3] is Monographella nivalis (Microdochium nivale). Kind of experiment: Monographella nivalis (Microdochium nivale) / liquid culture (foot rot cereals). Format: cell-based. To be noted: PDB potato dextrose broth, 24° C., 4-5 days after application, compared to untreated checks, read-out: disease control (inhibition of growth, photometric). The method, then: Monographella nivalis (Microdochium nivale)/Liquid Culture (Foot Rot Cereals) Conidia of the fungus from cryogenic storage are directly mixed into nutrient broth (PDB potato dextrose broth). After placing a (DMSO) solution of test compound into a microtiter plate (96-well format), the nutrient broth containing the fungal spores is added. The test plates are incubated at 24° C. and the inhibition of growth is determined photometrically 4-5 days after application.

The subject of experiment [4] is Phaeosphaeria nodorum (Septoria nodorum). Description: Phaeosphaeria nodorum (Septoria nodorum) / wheat / leaf disc preventative (glume blotch). It is filed as in vivo. The note with it: Parastagonospora nodorum, foliar, 120 h, wheat leaf segments cv. Kanzler, inoculated 2 days after application, assessed 5-7 days after application, compared to untreated, read-out: disease control. The method, then:
Phaeosphaeria nodorum (Septoria nodorum)/Wheat/Leaf Disc Preventative (Glume Blotch) Wheat leaf segments cv. Kanzler are placed on agar in a multiwell plate (24-well format) and sprayed with the formulated test compound diluted in water. The leaf disks are inoculated with a spore suspension of the fungus 2 days after application. The inoculated test leaf disks are incubated at 20° C. and 75% rh under a light regime of 12 h light/12 h darkness in a climate cabinet and the activity of a compound is assessed as percent disease control compared to untreated when an appropriate level of disease damage appears in untreated check leaf disks (5-7 days after application).

Experiment [5] has as its system Glomerella Lagenarium (Colletotrichum lagenarium). Description: Glomerella lagenarium (Colletotrichum lagenarium) / liquid culture (anthracnose). It is filed as cell-based. The note with it: Colletotrichum orbiculare, PDB potato dextrose broth, 24° C., 3 to 4 days after application, compared to untreated checks, read-out: disease control (inhibition of growth, photometric). The method, then:
Glomerella Lagenarium (Colletotrichum lagenarium)/Liquid Culture (Anthracnose) Conidia of the fungus from cryogenic storage are directly mixed into nutrient broth (PDB potato dextrose broth). After placing a (DMSO) solution of test compound into a microtiter plate (96-well format), the nutrient broth containing the fungal spores is added. The test plates are incubated at 24° C. and the inhibition of growth is measured photometrically 3 to 4 days after application.

For experiment [6], the system named is Puccinia Recondite f. Sp. Tritici. Kind of experiment: Puccinia recondita f. sp. tritici / wheat / leaf disc preventative (brown rust). Format: in vivo. To be noted: foliar, wheat leaf segments cv. Kanzler, inoculated 1 day after application, assessed 7-9 days after application, compared to untreated, read-out: disease control. The method, then:
Puccinia Recondite f. Sp. Tritici/Wheat/Leaf Disc Preventative (Brown Rust) Wheat leaf segments cv. Kanzler are placed on agar in multiwell plates (24-well format) and sprayed with the formulated test compound diluted in water. The leaf disks are inoculated with a spore suspension of the fungus 1 day after application. The inoculated leaf segments are incubated at 19° C. and 75% rh under a light regime of 12 h light/12 h darkness in a climate cabinet and the activity of a compound is assessed as percent disease control compared to untreated when an appropriate level of disease damage appears in untreated check leaf segments (7-9 days after application).

In experiment [7] the test system is Mycosphaerella Graminicola (Septoria tritici). Description: Mycosphaerella graminicola (Septoria tritici) / liquid culture (Septoria blotch). The note with it: Zymoseptoria tritici, PDB potato dextrose broth, 24° C., 4 to 5 days after application, compared to untreated checks, read-out: disease control (inhibition of growth, photometric). It is filed as cell-based. The method, then:
Mycosphaerella Graminicola (Septoria tritici)/Liquid Culture (Septoria Blotch) Conidia of the fungus from cryogenic storage are directly mixed into nutrient broth (PDB potato dextrose broth). After placing a (DMSO) solution of test compound into a microtiter plate (96-well format), the nutrient broth containing the fungal spores is added. The test plates are incubated at 24° C. and the inhibition of growth is determined photometrically 4 to 5 days after application.

The test system of experiment [8] is Magnaporthe grisea (Pyricularia oryzae). Kind of experiment: whole plant or invertebrate. It is filed as in vivo. To be noted: foliar, read-out: disease control.
In experiment [9] the test system is Blumeria graminis f. Sp. Tritici (Erysiphe Graminis f. Sp. Tritici). Kind of experiment: Blumeria graminis f. sp. tritici / wheat / leaf disc preventative (powdery mildew on wheat). To be noted: 200 ppm; wheat leaf segments cv. Kanzler, inoculated 1 day after application, assessed 6-8 days after application, compared to untreated. It is filed as in vivo. The method, then: Blumeria graminis f. Sp. Tritici (Erysiphe Graminis f. Sp. Tritici)/Wheat/Leaf Disc Preventative (Powdery Mildew on Wheat)
Wheat leaf segments cv. Kanzler are placed on agar in a multiwell plate (24-well format) and sprayed with the test compound formulated with DMSO and Tween20 and diluted in water. The leaf disks are inoculated by shaking powdery mildew infected plants above the test plates 1 day after application. The inoculated leaf disks are incubated at 20° C. and 60% rh under a light regime of 24 h darkness followed by 12 h light/12 h darkness in a climate chamber and the activity of a compound is assessed as percent disease control compared to untreated when an appropriate level of disease damage appears on untreated check leaf segments (6-8 days after application).

The subject of another experiment is Alternaria solani. Description: Alternaria solani / tomato / leaf disc (early blight). To be noted: 200 ppm; tomato leaf disks cv. Baby, inoculated 2 days after application, assessed 5-7 days after application, compared to untreated. It is filed as in vivo. The method, then:
Alternaria solani/Tomato/Leaf Disc (Early Blight) Tomato leaf disks cv. Baby are placed on agar in multiwell plates (24-well format) and sprayed with the formulated test compound diluted in water. The leaf disks are inoculated with a spore suspension of the fungus 2 days after application. The inoculated leaf disks are incubated at 23° C./21° C.

Consider `CCOc1ccc(C(c2ccc(OCC)cc2)N(C)OC(=O)[C@H](C)NC(=O)c2nccc(OC)c2O)cc1` [I.ac.01, [bis(4-ethoxy phenyl)methyl-methyl-amino] (2S)-2-[(3-hydroxy-4-methoxy-pyridine-2-carbonyl)amino]propanoate], for which the inhibition at 200 ppm in experiment [1], in [2], in experiment [3], in experiment [5] and in [7] was not below 80% in each case. In addition, the pest or weed control at 200 ppm in [4] and in [6] was not below 80% each time.

Take `COc1ccnc(C(=O)N[C@@H](C)C(=O)ON(C)C(c2ccccc2)c2ccccc2)c1O` [I.m.01, [benzhydryl(methyl)amino] (2S)-2-[(3-hydroxy-4-methoxy-pyridine-2-carbonyl)amino]propanoate]: the inhibition at 200 ppm in experiment [1], in experiment [2], in experiment [3], in experiment [5] and in experiment [7] was not below 80% in each case. The pest or weed control at 200 ppm in experiment [8], in experiment [4] and in experiment [6] was not below 80% each time.

In the case of `COc1ccnc(C(=O)N[C@@H](C)C(=O)ON(C)C(c2ccccc2)c2ccccc2)c1OC(C)=O` [I.m.13, [benzhydryl(methyl)amino] (2S)-2-[(3-acetoxy-4-methoxy-pyridine-2-carbonyl)amino]propanoate], the inhibition at 200 ppm in experiment [1] and in experiment [7] was not below 80% each time. Besides, in experiment [9], the disease control result was “at least 80%”. In addition, the pest or weed control at 200 ppm in experiment [8], in experiment [4] and in experiment [6] was not below 80% each time.

Take `COc1ccnc(C(=O)N[C@@H](C)C(=O)ON(C)C(C)(c2ccccc2)c2ccc(Cl)cc2)c1O` (stereo partly drawn) [I.o.02, [[1-(4-chlorophenyl)-1-phenyl-ethyl]-methyl-amino] (2S)-2-[(3-hydroxy-4-methoxy-pyridine-2-carbonyl)amino]propanoate]: the “control of Alternaria solani” value in the experiment with Alternaria solani is recorded as “at least 80%”. The inhibition at 200 ppm in experiment [1] and in experiment [7] was not below 80% each time. The pest or weed control at 200 ppm in experiment [8], in [4] and in experiment [6] was not below 80% each time.

Turning to `COc1ccnc(C(=O)N[C@@H](C)C(=O)ON(C)C(C)(c2ccc(F)cc2)c2ccc(F)cc2)c1O` [I.s.02, [1,1-bis(4-fluorophenyl)ethyl-methyl-amino] (2S)-2-[(3-hydroxy-4-methoxy-pyridine-2-carbonyl)amino] propanoate], the inhibition at 200 ppm in experiment [1], in [2], in experiment [5] and in [7] was not below 80% each time. Also, the pest or weed control at 200 ppm in [8] and in experiment [4] was not below 80% throughout.

Regarding `COc1ccnc(C(=O)N[C@@H](C)C(=O)ON(C)C(C)(c2ccc(Cl)cc2)c2ccc(Cl)cc2)c1OC(C)=O` [I.u.14, [1,1-bis(4-chlorophenyl)ethyl-methyl-amino] (2S)-2-[(3-acetoxy-4-methoxy-pyridine-2-carbonyl)amino]propanoate], the inhibition at 200 ppm in experiment [1], in experiment [2], in experiment [3], in experiment [5] and in [7] was not below 80% in each case. The pest or weed control at 200 ppm in experiment [8], in experiment [4] and in [6] was not below 80% throughout.

The values above are taken from US11535594B2, “Microbiocidal picolinamide derivatives” (Syngenta Participations AG, priority 2017, dated 2022).
